Results taken from patent US20090297508A1, “Compositions and methods for treating hemostasis disorders associated with clec-2 signal transduction” (UNIVERSITY OF YAMANASHI, priority 2005, published 2009).

What was measured:
[1] = molecular target: Syk (Homo sapiens, UniProt P43405); settings: 10 μg peptide plus avidin-Sepharose, platelet lysates
Description: (§1) Washed human platelets (1×10^9/ml) pretreated with 1 mM GRGDS (SEQ ID NO: 5) peptide or washed murine platelets (2×10^8/ml) pretreated with 10 μM lotrafiban to inhibit platelet aggregation were stimulated with 50 nM rhodocytin, 100 μM SFLLRN (SEQ ID NO: 6), or 50 μg/ml of collagen. […] Reactions were terminated by addition of 2× ice-cold lysis buffer. Platelet lysates were precleared and detergent-insoluble debris was clarified as described 17. A small aliquot was dissolved with SDS sample buffer for detection of total tyrosine phosphorylation. Antibodies against CLEC-2, PLCγ2, Syk, Btk, SLP-76, LAT, Vav1, or Vav3 were added to the resultant supernatant and incubated overnight. Where indicated, 10 μg of CLEC-2 YXXL-containing peptide plus avidin-Sepharose or GST-fusion protein-associated glutathione Sepharose were incubated with the lysates. […] The samples were lysed with 2× lysis buffer before and 5 min after stimulation. […] After removing insoluble debris by centrifugation, CLEC-2 was immunoprecipitated by addition of protein G. Precipitated proteins or whole cell lysates were separated by SDS-PAGE, electrotransferred, and western blotted by the indicated antibodies.

[2] = system: CLEC-2; test: CLEC-2 tyrosine phosphorylation in human platelets (immunoprecipitation and western blotting); assay type: cell-based; settings: for tyrosine phosphorylation of CLEC-2: 50 μg/ml collagen or 100 μM SFLLRN, time course of up to 5 min; for block of rhodocytin-induced tyrosine phosphorylation of CLEC-2: 30 μM inhibitor pretreatment, 50 nM rhodocytin
Description: as §1

[3] = system: platelets; test: Whole cell tyrosine phosphorylation and functional responses of platelets stimulated by rhodocytin; assay type: cell-based; settings: data not shown
[4] = system: CLEC-2; test: Precipitation of CLEC-2 from platelet lysates by GST fusion protein of tandem Syk SH2 domains; assay type: cell-based, human; settings: 30 μM PP2 pretreatment, 50 nM rhodocytin
Description: (A) Washed murine platelets were stimulated with 50 nM rhodocytin for the indicated times. Whole cell lysates or immunoprecipitates with antibodies against PLCγ2, Vav1, or Vav3 were separated by SDS-PAGE and western blotted with the indicated antibodies. (B) Control or Syk-deficient platelets were stimulated with 30 nM rhodocytin and platelet aggregation was monitored using an aggregometer. (C) (i)(ii) Washed human platelets, pretreated with or without 30 μM PP2, were stimulated with 50 nM rhodocytin or 10 μg/ml of convulxin for the indicated times. Reactions were terminated by addition of an equal volume of 2× lysis buffer. […] The resultant supernatant was incubated with 40 μl of glutathione beads associated with GST fusion protein containing tandem Syk SH2 domains. Precipitated proteins were separated by SDS-PAGE and western blotted with an antibody to CLEC-2. (iii) CLEC-2 associated with 10 μg of CLEC-2 phospho-YXXL-containing peptide plus avidin-sepharose was detected by CLEC-2 antibody. The data are representative of 2-5 experiments.

[5] = system: Syk, Btk, LAT, SLP-76, Vav1, Vav3, PLCγ2; test: Tyrosine phosphorylation of signaling proteins of the GPVI cascade in platelets; assay type: cell-based, human; settings: PP2 present; not shown

Biotin-6-aminohexanoic acid (Ahx)-MQDEDGYITLNIK-OH [non-phosphorylated peptide]
interaction of Syk with CLEC-2 YXXL peptide [1]: no interaction

Ser-Phe-Leu-Leu-Arg-Asn (SFLLRN)
tyrosine phosphorylation of CLEC-2 [2]: does not undergo tyrosine phosphorylation

collagen
tyrosine phosphorylation of CLEC-2 [2]: does not undergo tyrosine phosphorylation

CC(C)(C)n1nc(-c2ccc(Cl)cc2)c2c(N)ncnc21 [PP2]
block of tyrosine phosphorylation in whole cells and functional responses to rhodocytin [3]: block tyrosine phosphorylation in whole cells and all functional responses
effect on precipitation of CLEC-2 by Syk fusion protein from rhodocytin-stimulated platelets [4]: abolished
block of rhodocytin-induced tyrosine phosphorylation of CLEC-2 [2]: block tyrosine phosphorylation of both the 32 and 40 kDa forms of CLEC-2
effect on rhodocytin-induced tyrosine phosphorylation of Syk, Btk, LAT, SLP-76, Vav1, Vav3, PLCγ2 [5]: abolished

Cc1ccc(-c2nn(C(C)(C)C)c3ncnc(N)c23)cc1 [PP1]
block of tyrosine phosphorylation in whole cells and functional responses to rhodocytin [3]: block tyrosine phosphorylation in whole cells and all functional responses

Nc1ncnc2c1cnn2-c1ccccc1 [PP3]
block of rhodocytin-induced tyrosine phosphorylation of CLEC-2 [2]: not

Biotin-6-aminohexanoic acid (Ahx)-MQDEDGY(PO3H2)ITLNIK-OH
interaction of Syk with CLEC-2 YXXL peptide [1]: Syk could be precipitated
